Entries after “also recorded” stand apart in the source; their conditions may differ.
System: not given
Assay: not given
Settings: not given

Row | SMILES | melting point
1 | CC(=O)O[C@H]1CC[C@@]2(C)C(=CC[C@@H]3[C@@H]2CC[C@]2(C)C(n4nccn4)=CC[C@@H]32)C1 | 154 to 155 °C
2 | CC(=O)O[C@H]1CC[C@@]2(C)C(=CC[C@@H]3[C@@H]2CC[C@]2(C)C(n4ccnn4)=CC[C@@H]32)C1 | 158 to 160 °C
3 | CC(=O)O[C@H]1CC[C@@]2(C)C(=CC[C@@H]3[C@@H]2CC[C@]2(C)C(n4ncnn4)=CC[C@@H]32)C1 | 155 to 156 °C
4 | CC(=O)O[C@H]1CC[C@@]2(C)C(=CC[C@@H]3[C@@H]2CC[C@]2(C)C(n4cccn4)=CC[C@@H]32)C1 | 159 to 161 °C
5 | CC(=O)O[C@H]1CC[C@@]2(C)C(=CC[C@H]3[C@@H]4CC[C@@H](n5cccn5)[C@@]4(C)CC[C@@H]32)C1 | 238 to 240 °C
6 | C[C@]12CC[C@H](O)CC1=CC[C@@H]1[C@@H]2CC[C@]2(C)C(n3cncn3)=CC[C@@H]12 [Compound 6, 3β-hydroxy-17-(1H, 1,2,4-triazol-1-yl)androsta-5,16-diene] | 185 to 189 °C (dec.)
7 | C[C@]12CC[C@H]3[C@@H](CC=C4C[C@@H](O)CC[C@@]43C)[C@@H]1CC[C@@H]2n1cncn1 [Compound 8, 3β-hydroxy-17β-(1H-1,2,4-triazol-1-yl)androst-5-ene] | 246 to 248 °C
8 | C[C@]12CC[C@H]3[C@@H](CC=C4C[C@@H](O)CC[C@@]43C)[C@@H]1CC[C@@H]2n1ccnc1 [Compound 13, 3β-Hydroxy-17β-(1H-imidazol-1-yl)androst-5-ene] | 255 to 258 °C
9 | C[C@]12CC[C@H](O)CC1=CC[C@@H]1[C@@H]2CC[C@]2(C)C(n3nccn3)=CC[C@@H]12 [Compound 18, 3β-hydroxy-17-(2H-1,2,3-triazol-2-yl)androsta-5,16-diene] | 176 to 177 °C

Biological target: T1, human prostate 5α-reductase (Homo sapiens, UniProt P31213)
T1 construct: The enzymatic reactions were initiated by addition of human BPH microsomes; from tissue; host or cells: human benign prostatic hyperplasia (BPH) tissue, microsomal fraction
T1 sequence (P31213 1-254): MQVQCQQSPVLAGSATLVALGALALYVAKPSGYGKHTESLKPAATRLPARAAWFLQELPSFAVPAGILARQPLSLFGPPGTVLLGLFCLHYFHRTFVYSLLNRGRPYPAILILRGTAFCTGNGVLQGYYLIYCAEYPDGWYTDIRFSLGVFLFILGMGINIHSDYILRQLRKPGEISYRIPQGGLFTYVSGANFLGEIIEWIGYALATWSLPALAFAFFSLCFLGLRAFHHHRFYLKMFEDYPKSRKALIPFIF
Assay: Inhibition of human prostate 5α-reductase in BPH microsomes (conversion of [7-3H]-testosterone to DHT)
Format: biochemical
Settings: human BPH microsomes; mean ± SDM of at least two experiments; read-out: 5α-Reductase IC50
Experimental: […] The ethanol was evaporated to dryness under a gentle stream of air. […] The enzymatic reactions were initiated by addition of human BPH microsomes (about 180 μg of microsomal protein in 500 μl of phosphate buffer) in a total volume of 1.0 ml, and the incubations were performed for 10 min under oxygen in a shaking water bath at 37° C. The incubations were terminated by placing the sample tubes on ice and the addition of ether. Also, [^14C]-DHT (3000 dpm) and cold DHT (50 μg) were added to each tube as an internal standard and visualization marker, respectively. The steroids were extracted with ether and separated by TLC (chloroform:ether, 80:20) and visualized by exposure to iodine vapor. The extracts were analyzed for ^3H and ^14C using a liquid scintillation counter. The percentage conversion of [7-^3H]-testosterone to [^3H]-dihydrotestosterone was calculated and used to determine 5α-reductase activity.

Row | SMILES | IC50 [µM]
10 | C[C@]12CC[C@H](O)CC1=CC[C@@H]1[C@@H]2CC[C@]2(C)C(n3cncn3)=CC[C@@H]12 [Compound 6, 3β-hydroxy-17-(1H, 1,2,4-triazol-1-yl)androsta-5,16-diene] | ~160

Same assay, conditions: human prostate enzyme

Row | SMILES | Inhibition of 5α-reductase, in words
11 | C[C@]12CC[C@H](O)CC1=CC[C@@H]1[C@@H]2CC[C@]2(C)C(n3cncn3)=CC[C@@H]12 [Compound 6, 3β-hydroxy-17-(1H, 1,2,4-triazol-1-yl)androsta-5,16-diene] | poor inhibitors

Biological target: T2, Human P45017α (Homo sapiens, UniProt P05093)
T2 construct: Human testicular microsomes were prepared from human testes; from tissue; host or cells: human testes (untreated prostatic cancer patients undergoing orchidectomy), microsomal fraction
T2 sequence (P05093 1-508): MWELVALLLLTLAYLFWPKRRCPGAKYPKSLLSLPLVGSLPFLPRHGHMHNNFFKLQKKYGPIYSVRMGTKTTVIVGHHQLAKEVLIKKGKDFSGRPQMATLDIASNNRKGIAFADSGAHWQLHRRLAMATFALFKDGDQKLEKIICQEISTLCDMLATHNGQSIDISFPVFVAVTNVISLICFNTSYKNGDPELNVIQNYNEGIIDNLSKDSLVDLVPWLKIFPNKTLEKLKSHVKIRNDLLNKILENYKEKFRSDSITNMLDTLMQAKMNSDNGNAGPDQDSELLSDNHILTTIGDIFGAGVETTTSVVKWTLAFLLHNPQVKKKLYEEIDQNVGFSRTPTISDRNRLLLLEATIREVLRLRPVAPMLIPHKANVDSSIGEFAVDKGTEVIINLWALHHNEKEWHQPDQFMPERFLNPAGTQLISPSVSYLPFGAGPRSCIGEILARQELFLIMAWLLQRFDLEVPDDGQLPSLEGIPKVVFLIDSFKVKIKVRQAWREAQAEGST
Assay: Inhibition of human testicular microsomal P45017α (lyase activity, release of C3H3COOH from [21-3H3]-17α-hydroxypregnenolone)
Format: biochemical
Settings: not given
Experimental: (§1) The microsomes were stored at −70° C. until assayed. Just before use, the thawed microsomes were diluted with 0.1 M phosphate buffer (pH 7.4) to appropriate concentrations.
(§2) This assay measures only the lyase activity of the P45017α enzyme.
(§3) IC50 values for inhibitors were calculated from the linear regression line in the plot of logit of lyase activity versus log of inhibitor concentration. […] Each inhibitor was examined at three concentrations.

Row | SMILES | IC50 [µM]
12 | C[C@]12CC[C@H](O)CC1=CC[C@@H]1[C@@H]2CC[C@]2(C)C(n3cncn3)=CC[C@@H]12 [Compound 6, 3β-hydroxy-17-(1H, 1,2,4-triazol-1-yl)androsta-5,16-diene] | 0.09
13 | C[C@]12CC[C@H]3[C@@H](CC=C4C[C@@H](O)CC[C@@]43C)[C@@H]1CC[C@@H]2n1ccnc1 [Compound 13, 3β-Hydroxy-17β-(1H-imidazol-1-yl)androst-5-ene] | 0.062

Same assay, conditions: Human P45017α Ki, from Lineweaver-Burk plots and slope replots; Km of 17α-hydroxypregnenolone 560 nM

Row | SMILES | Ki [µM]
14 | C[C@]12CC[C@H](O)CC1=CC[C@@H]1[C@@H]2CC[C@]2(C)C(n3cncn3)=CC[C@@H]12 [Compound 6, 3β-hydroxy-17-(1H, 1,2,4-triazol-1-yl)androsta-5,16-diene] | 0.023

Same assay, conditions: human testicular microsomes

Row | SMILES | Inhibition of human P45017α, in words
15 | C[C@]12CC[C@H](O)CC1=CC[C@@H]1[C@@H]2CC[C@]2(C)C(n3cncn3)=CC[C@@H]12 [Compound 6, 3β-hydroxy-17-(1H, 1,2,4-triazol-1-yl)androsta-5,16-diene] | potent inhibitors; also recorded: powerful inhibitors
16 | C[C@]12CC[C@H](O)CC1=CC[C@@H]1[C@@H]2CC[C@]2(C)C(n3nccn3)=CC[C@@H]12 [Compound 18, 3β-hydroxy-17-(2H-1,2,3-triazol-2-yl)androsta-5,16-diene] | non-inhibitory

Same assay, conditions: human testicular microsomes; mean ± SDM of at least two experiments; read-out: Human P45017α IC50

Row | SMILES | IC50 [µM]
17 | C[C@]12CC[C@H]3[C@@H](CC=C4C[C@@H](O)CC[C@@]43C)[C@@H]1CC[C@@H]2n1cncn1 [Compound 8, 3β-hydroxy-17β-(1H-1,2,4-triazol-1-yl)androst-5-ene] | 0.219

Same assay, conditions: inhibitor 150 nM; substrate 17α-hydroxypregnenolone 10 μM; mean of two determinations

Row | SMILES | % Inhibition of human P45017α
18 | C[C@]12CC[C@H](O)CC1=CC[C@@H]1[C@@H]2CC[C@]2(C)C(n3nccn3)=CC[C@@H]12 [Compound 18, 3β-hydroxy-17-(2H-1,2,3-triazol-2-yl)androsta-5,16-diene] | N.I.^c

Same assay, conditions: inhibitor 150 nM; substrate 17α-hydroxypregnenolone 10 μM; mean of two determinations; read-out: % Inhibition of human P45017α

Row | SMILES | inhibition at 0.15 µM [%]
19 | C[C@]12CC[C@H](O)CC1=CC[C@@H]1[C@@H]2CC[C@]2(C)C(n3cncn3)=CC[C@@H]12 [Compound 6, 3β-hydroxy-17-(1H, 1,2,4-triazol-1-yl)androsta-5,16-diene] | 60

Biological target: T3, Rat P45017α (Rattus norvegicus, UniProt P11715)
T3 sequence (P11715 1-507): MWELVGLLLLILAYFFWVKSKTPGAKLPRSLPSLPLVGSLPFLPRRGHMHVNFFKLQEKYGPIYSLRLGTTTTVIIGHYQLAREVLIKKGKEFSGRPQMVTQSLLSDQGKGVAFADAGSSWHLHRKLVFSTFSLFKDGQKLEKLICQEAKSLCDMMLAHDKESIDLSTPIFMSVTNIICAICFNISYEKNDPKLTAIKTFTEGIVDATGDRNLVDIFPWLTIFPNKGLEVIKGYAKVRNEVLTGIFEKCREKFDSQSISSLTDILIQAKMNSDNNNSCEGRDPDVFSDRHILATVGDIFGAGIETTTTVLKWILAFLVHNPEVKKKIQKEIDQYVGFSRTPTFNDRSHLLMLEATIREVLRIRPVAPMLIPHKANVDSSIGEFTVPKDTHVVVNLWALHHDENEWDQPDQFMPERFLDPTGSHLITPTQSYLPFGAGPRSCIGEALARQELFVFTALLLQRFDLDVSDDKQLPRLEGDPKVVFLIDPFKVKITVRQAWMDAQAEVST
Assay: Inhibition of rat testicular microsomal P45017α (lyase activity)
Format: biochemical
Settings: from IC50 values, rat vs human testicular microsomes
Experimental: as §1, §2, §3

Row | SMILES | Increase of potency towards the rat enzyme compared with human P45017α [fold]
20 | C[C@]12CC[C@H](O)CC1=CC[C@@H]1[C@@H]2CC[C@]2(C)C(n3cncn3)=CC[C@@H]12 [Compound 6, 3β-hydroxy-17-(1H, 1,2,4-triazol-1-yl)androsta-5,16-diene] | 3.5

Same assay, conditions: rat testicular microsomes

Row | SMILES | Inhibition of rat testicular P45017α, in words
21 | C[C@]12CC[C@H](O)CC1=CC[C@@H]1[C@@H]2CC[C@]2(C)C(n3cncn3)=CC[C@@H]12 [Compound 6, 3β-hydroxy-17-(1H, 1,2,4-triazol-1-yl)androsta-5,16-diene] | powerful inhibitors

Same assay, conditions: rat testicular microsomes; mean ± SDM of at least two experiments; read-out: Rat P45017α IC50

Row | SMILES | IC50 [µM]
22 | C[C@]12CC[C@H](O)CC1=CC[C@@H]1[C@@H]2CC[C@]2(C)C(n3cncn3)=CC[C@@H]12 [Compound 6, 3β-hydroxy-17-(1H, 1,2,4-triazol-1-yl)androsta-5,16-diene] | 0.026 ± 0.013

Source: patent US6444683B2, “17-azolyl steroids useful as androgen synthesis inhibitors” (University of Maryland at Baltimore, priority 1997, dated 2002)
